Assay results as given in patent US9127016B2, “Small molecule inhibitors of Dusp6 and uses therefor” (University of Pittsburgh—Of the Commonwealth System of …, priority 2009, dated 2015).

Target: T1, Cdc25B (Homo sapiens, UniProt P30305)
T1 sequence (P30305 1-580): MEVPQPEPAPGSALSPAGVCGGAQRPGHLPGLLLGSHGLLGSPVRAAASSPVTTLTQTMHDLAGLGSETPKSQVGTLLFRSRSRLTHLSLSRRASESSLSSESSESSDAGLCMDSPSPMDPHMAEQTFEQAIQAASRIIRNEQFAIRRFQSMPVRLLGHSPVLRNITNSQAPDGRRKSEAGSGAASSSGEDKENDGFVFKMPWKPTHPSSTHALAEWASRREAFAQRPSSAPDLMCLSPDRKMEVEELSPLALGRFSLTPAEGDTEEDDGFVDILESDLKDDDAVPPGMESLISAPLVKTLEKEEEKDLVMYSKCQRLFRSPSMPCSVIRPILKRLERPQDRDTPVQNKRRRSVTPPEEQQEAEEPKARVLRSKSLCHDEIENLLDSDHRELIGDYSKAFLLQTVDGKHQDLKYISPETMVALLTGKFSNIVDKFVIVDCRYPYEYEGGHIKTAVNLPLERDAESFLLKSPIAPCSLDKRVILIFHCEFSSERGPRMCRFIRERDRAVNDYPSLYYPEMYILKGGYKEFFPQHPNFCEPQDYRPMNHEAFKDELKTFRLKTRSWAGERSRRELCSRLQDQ
Assay: OMFP phosphatase assay, Cdc25B
Type: biochemical
Details: n=3, OMFP substrate, 15.2 nM-300 μM; read-out: mean in vitro values, Cdc25B
Procedure: Enzyme activities in the presence or absence of BCI were measured using the artificial substrate […] at concentrations equal to the Km of each enzyme (Cdc25B, PTP1B & Dusp3/VHR) and at optimal pH for individual enzyme activity in a 96-well microtiter plate assay based on previously described methods by Lazo et al. (J Med Chem 44, 4042-9 (2001) and Lazo, J. S. et al. Bioorg Med Chem 14, 5643-50 (2006)). Briefly, the standard assay conditions contained 0.02 mg/ml OMFP in assay buffer (30 mM Tris-HCl (pH8.0), 75 mM NaCl, 1 mM EDTA, 0.33% BSA and 1 mM DTT). Fluorescence emission was measured after a sixty-minute incubation period at ambient temperature using a multiwell plate reader (SpectraMax m5, […]; excitation 485 nm, emission 525 nm). Sodium orthovanadate (100 μM) was used as a positive control for full phosphatase inhibition. IC50 concentrations were determined from three experiments using 10 concentrations of BCI ranging from 300 μM to 15.2 nM and GraphPad Prism 5.0 software.

SMILES: O=C1/C(=C/c2ccccc2)C(NC2CCCCC2)c2ccccc21 (stereo not shown) [Compound 3, (E)-2-benzylidene-3-(cyclohexylamino)-2,3-dihydro-1H-inden-1-one]
- IC50: > 300 µM
